In patent US9896441B2 (Lycera Corporation, priority 2014, dated 2018):

Columns and labels:
Gal4-RORγ-LBD = biological target: T1, Gal4-RORγ-LBD (Homo sapiens, UniProt P51449); assay: Gal4-RORγ Luciferase Reporter Assay in HEK-293T Cells; type: cell-based; conditions: HEK-293 cells; for Gal4-RORγ Assay Max Response: maximum response
T1 construct: expressed in transfected cells
T1 sequence (P51449 269-508 limits assumed): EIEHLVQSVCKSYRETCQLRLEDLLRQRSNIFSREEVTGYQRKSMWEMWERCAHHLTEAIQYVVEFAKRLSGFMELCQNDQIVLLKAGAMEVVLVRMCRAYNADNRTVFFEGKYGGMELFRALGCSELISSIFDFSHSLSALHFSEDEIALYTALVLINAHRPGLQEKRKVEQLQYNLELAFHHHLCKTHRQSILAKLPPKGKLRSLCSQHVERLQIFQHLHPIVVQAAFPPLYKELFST
Summary of the method: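 HEK-293 cells were co-transfected with Gal4-RORγ-LBD and a Gal4-luciferase reporter, then exposed overnight at 37 °C to compounds with […] ursolic acid present (0.2% DMSO). Luminescence was read with One-Glo after 10 min at RT, untreated signal was set as 100, and Max Response was taken as the upper plateau of a 4-parameter logistic fit.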

RORγ-LBD = biological target: T2, RORγ-LBD (Homo sapiens, UniProt P51449); assay: RORγ-Ligand Binding Domain (LBD) TR-FRET Assay; type: biochemical; conditions: for TR-FRET Assay Max Response: maximum response;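 on TR-FRET Assay Max Response: 665/615 nm signal ratio set to 100 without ursolic acid or test compound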
T2 construct: made in house; host or cells: SF9 cells (baculovirus); used as diluted lysate
T2 sequence (P51449 269-508 limits assumed): T1 sequence (P51449 269-508 limits assumed)
Summary of the method: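 His-tagged RORγ-LBD from SF9 baculovirus lysate, ~3 nM final, in 50 mM Tris pH 7.0, 50 mM KCl, 1 mM EDTA, 0.1 mM DTT, 0.01% BSA. Biotinylated SRC1 LXXLL peptide at 200 nM final with 2 μM ursolic acid; TR-FRET read-out, 1% DMSO final.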

[1] = luciferase reporter, in presence of ursolic acid

| Structure (SMILES) | EC50 (Gal4-RORγ-LBD; ursolic acid present, luciferase readout) | EC50 (RORγ-LBD; with 2 μM ursolic acid (RORγ antagonist), highest test concentration 10 μM) | EC50 (Gal4-RORγ-LBD; [1]) | Gal4-RORγ Assay Max Response (Gal4-RORγ-LBD; [1]) | EC50 (RORγ-LBD; RORγ-LBD TR-FRET assay) | TR-FRET Assay Max Response (RORγ-LBD; RORγ-LBD TR-FRET assay) |
| --- | --- | --- | --- | --- | --- | --- |
| C/C(=C\c1ccc2c(c1)N(S(=O)(=O)c1cccc(C(F)(F)F)c1)C[C@H](CNC(=O)N(C)CCC(=O)O)O2)c1c(F)cccc1Cl [Example 116P, (S,E)-3-(3-((6-(2-(2-chloro-6-fluorophenyl)prop-1-en-1-yl)-4-((3-(trifluoromethyl)phenyl)sulfonyl)-3,4-dihydro-2H-benzo[b][1,4]-oxazin-2-yl)methyl)-1-methylureido)propanoic acid] | < 500 nM | < 500 nM |  |  |  |  |
| C/C(=C\c1ccc2c(c1)N(S(=O)(=O)c1cccc(C(F)(F)F)c1)C[C@H](CCCN1CCCC1)O2)c1c(F)cccc1Cl [Example 117, (S,E)-6-(2-(2-Chloro-6-fluorophenyl)prop-1-en-1-yl)-2-(3-(pyrrolidin-1-yl)propyl)-4-((3-(trifluoromethyl)phenyl)sulfonyl)-3,4-dihydro-2H-benzo[b][1,4]oxazine] |  |  | 500 to 5000 nM | ** (a value in the range of greater than 90 to 150) | < 500 nM | *** (a value in the range of greater than 150 to 200) |
| C/C(=C\c1ccc2c(c1)N(S(=O)(=O)c1cccc(C(F)(F)F)c1)C[C@H](CCN1CCCC1)O2)c1c(F)cccc1Cl [Example 118, (S,E)-6-(2-(2-Chloro-6-fluorophenyl)prop-1-en-1-yl)-2-(2-(pyrrolidin-1-yl)ethyl)-4-((3-(trifluoromethyl)phenyl)sulfonyl)-3,4-dihydro-2H-benzo[b][1,4]oxazine] |  |  | 500 to 5000 nM |  | < 500 nM |  |
| C/C(=C\c1ccc2c(c1)N(S(=O)(=O)c1cccc(C(F)(F)F)c1)C[C@H](CCN1CCOCC1)O2)c1c(F)cccc1Cl [Example 119A, (S,E)-6-(2-(2-chloro-6-fluorophenyl)prop-1-en-1-yl)-2-(2-morpholinoethyl)-4-((3-(trifluoromethyl)phenyl)sulfonyl)-3,4-dihydro-2H-benzo[b][1,4]oxazine] |  |  | < 500 nM | ** (a value in the range of greater than 90 to 150) | < 500 nM | **** (a value greater than 200) |
| C/C(=C\c1ccc2c(c1)N(S(=O)(=O)c1cccc(C(F)(F)F)c1)C[C@H](CCCN1CCC(O)C1)O2)c1c(F)cccc1Cl (stereo partly drawn) [Example 119B, 1-(3-((S)-6-((E)-2-(2-chloro-6-fluorophenyl)prop-1-en-1-yl)-4-((3-(trifluoromethyl)-phenyl)-sulfonyl)-3,4-dihydro-2H-benzo[b][1,4]-oxazin-2-yl)propyl)-pyrrolidin-3-ol] |  |  | 500 to 5000 nM | ** (a value in the range of greater than 90 to 150) | < 500 nM | *** (a value in the range of greater than 150 to 200) |
| C/C(=C\c1ccc2c(c1)N(S(=O)(=O)c1cccc(C(F)(F)F)c1)C[C@H](CCN1CCC(O)C1)O2)c1c(F)cccc1Cl (stereo partly drawn) [Example 119C, 1-(2-((S)-6-((E)-2-(2-chloro-6-fluorophenyl)prop-1-en-1-yl)-4-((3-(trifluoromethyl)-phenyl)sulfonyl)-3,4-dihydro-2H-benzo[b][1,4]oxazin-2-yl)ethyl)pyrrolidin-3-ol] |  |  | 500 to 5000 nM | ** (a value in the range of greater than 90 to 150) | < 500 nM | *** (a value in the range of greater than 150 to 200) |
| C/C(=C\c1ccc2c(c1)N(S(=O)(=O)c1cccc(C(F)(F)F)c1)C[C@H](CCCN1CCOCC1)O2)c1c(F)cccc1Cl [Example 119D, (S,E)-6-(2-(2-chloro-6-fluorophenyl)prop-1-en-1-yl)-2-(3-morpholinopropyl)-4-((3-(trifluoromethyl)-phenyl)sulfonyl)-3,4-dihydro-2H-benzo[b][1,4]oxazine] |  |  | < 500 nM | ** (a value in the range of greater than 90 to 150) | < 500 nM | *** (a value in the range of greater than 150 to 200) |
| CCOC(=O)C1CCN(CCC[C@H]2CN(S(=O)(=O)c3cccc(C(F)(F)F)c3)c3cc(/C=C(\C)c4c(F)cccc4Cl)ccc3O2)CC1 [Example 119E, ethyl (S,E)-1-(3-(6-(2-(2-chloro-6-fluorophenyl)prop-1-en-1-yl)-4-((3-(trifluoromethyl)phenyl)sulfonyl)-3,4-dihydro-2H-benzo[b][1,4]oxazin-2-yl)propyl)piperidine-4-carboxylate] |  |  | 500 to 5000 nM | ** (a value in the range of greater than 90 to 150) | < 500 nM | *** (a value in the range of greater than 150 to 200) |
| CCOC(=O)C1CCN(CC[C@H]2CN(S(=O)(=O)c3cccc(C(F)(F)F)c3)c3cc(/C=C(\C)c4c(F)cccc4Cl)ccc3O2)CC1 [Example 119F, ethyl (S,E)-1-(2-(6-(2-(2-chloro-6-fluorophenyl)prop-1-en-1-yl)-4-((3-(trifluoromethyl)phenyl)sulfonyl)-3,4-dihydro-2H-benzo[b][1,4]oxazin-2-yl)ethyl)piperidine-4-carboxylate] |  |  | > 10000 nM |  | < 500 nM | *** (a value in the range of greater than 150 to 200) |
| C/C(=C\c1ccc2c(c1)N(S(=O)(=O)c1cccc(C(F)(F)F)c1)C[C@H](CCN1CCS(=O)(=O)CC1)O2)c1c(F)cccc1Cl [Example 119G, (S,E)-4-(2-(6-(2-(2-chloro-6-fluorophenyl)prop-1-en-1-yl)-4-((3-(trifluoromethyl)phenyl)sulfonyl)-3,4-dihydro-2H-benzo[b][1,4]oxazin-2-yl)ethyl)thiomorpholine 1,1-dioxide] |  |  | < 500 nM | * (a value in the range of 30 to 90) | < 500 nM | *** (a value in the range of greater than 150 to 200) |
| C/C(=C\c1ccc2c(c1)N(S(=O)(=O)c1cccc(C(F)(F)F)c1)C[C@H](CCCN1CCS(=O)(=O)CC1)O2)c1c(F)cccc1Cl [Example 119H, (S,E)-4-(3-(6-(2-(2-chloro-6-fluorophenyl)prop-1-en-1-yl)-4-((3-(trifluoromethyl)-phenyl)sulfonyl)-3,4-dihydro-2H-benzo[b][1,4]oxazin-2-yl)propyl)thiomorpholine 1,1-dioxide] |  |  | < 500 nM | ** (a value in the range of greater than 90 to 150) | < 500 nM | *** (a value in the range of greater than 150 to 200) |
| COc1cc(S(=O)(=O)N2C[C@H](CCC(C)(C)O)Oc3ccc(/C=C(\C)c4c(F)cccc4Cl)cc32)ccc1F [Example 120, (S,E)-4-(6-(2-(2-Chloro-6-fluorophenyl)prop-1-en-1-yl)-4-((4-fluoro-3-methoxyphenyl)sulfonyl)-3,4-dihydro-2H-benzo[b][1,4]oxazin-2-yl)-2-methylbutan-2-ol] |  |  | < 500 nM | ** (a value in the range of greater than 90 to 150) | < 500 nM | *** (a value in the range of greater than 150 to 200) |
| C/C(=C\c1ccc2c(c1)N(S(=O)(=O)c1cccc(C(F)(F)F)c1)C[C@H](CC(C)(C)O)O2)c1c(F)cccc1Cl [Example 121A, (S,E)-1-(6-(2-(2-chloro-6-fluorophenyl)prop-1-en-1-yl)-4-((3-(trifluoromethyl)-phenyl)sulfonyl)-3,4-dihydro-2H-benzo[b][1,4]oxazin-2-yl)-2-methylpropan-2-ol] |  |  | < 500 nM | ** (a value in the range of greater than 90 to 150) | < 500 nM | *** (a value in the range of greater than 150 to 200) |
| C/C(=C\c1ccc2c(c1)N(S(=O)(=O)c1cccc(C(F)(F)F)c1)C[C@H](CCC(C)(C)O)O2)c1c(F)cccc1Cl [Example 121B, (S,E)-4-(6-(2-(2-chloro-6-fluorophenyl)prop-1-en-1-yl)-4-((3-(trifluoromethyl)-phenyl)sulfonyl)-3,4-dihydro-2H-benzo[b][1,4]oxazin-2-yl)-2-methylbutan-2-ol] |  |  | < 500 nM | ** (a value in the range of greater than 90 to 150) | < 500 nM | ** (a value in the range of greater than 90 to 150) |
| CCn1cc(S(=O)(=O)N2C[C@H](CCC(C)(C)O)Oc3ccc(/C=C(\C)c4c(F)cccc4Cl)cc32)c(OCCO)n1 [Example 121C, (S,E)-4-(6-(2-(2-chloro-6-fluorophenyl)prop-1-en-1-yl)-4-((1-ethyl-3-(2-hydroxyethoxy)-1H-pyrazol-4-yl)sulfonyl)-3,4-dihydro-2H-benzo[b][1,4]oxazin-2-yl)-2-methylbutan-2-ol] |  |  | < 500 nM | ** (a value in the range of greater than 90 to 150) | < 500 nM | **** (a value greater than 200) |
